Where a name gives a salt, the structure may show the parent alone.
What was measured:
rats = assay: Mortality rate after injection of drugs through tail vein; assay type: in vivo, rat; settings: 0.4 mL through tail vein, 10 rats
Procedure: 0.2% aqueous solution of the compounds of the present invention and 0.75% levobupivacaine solution were injected into the rats through tail vein in 0.4 mL, and the mortality rate was observed. Each drug was injected into 10 rats (half male and half female, weighing 290-310).

[1] = test system: left sciatic nerve of rats; assay: Sciatic nerve blocking experiment in rats (Von Frey filaments 60 g); assay type: in vivo, rat
Procedure: The compounds of the examples were dissolved in water for injection to a concentration of 0.5-2.0 g/100 mL (0.5%-2%), or mixed with commercially-available clinically-common local anesthetic drugs to prepare a mixed solution with a specific proportion, and the 0.75% levobupivacaine was used as the positive control compound. The experimental method was as follows: male SD rats weighing 180-300 g were anesthetized with isoflurane, 0.2 mL of the drug-containing solution was injected near the left sciatic nerve of rats, and 8 rats were used for each drug for the experiment. After the rats woke up, the first measurement was performed, and then the measurement was performed every 2 hours. If there was still an anesthetic effect after six measurements, the measurement was performed every 6 hours until the anesthetic effect disappeared. The method for judging the existence of anesthetic effect was as follows. The skin of the sole and lateral surface of the hindlimb of the rat on the side injected with the drug was stimulated using Von Frey filaments (60 g). […] If there was no such behavior, it was considered that the local anesthetic effect existed.

male SD rats = assay: Subcutaneous infiltration anesthesia in rats (acupuncture stimulation of back skin); assay type: in vivo, rat; settings: for Duration of local anesthesia: 0.4 mL subcutaneous
Procedure: The compounds of the examples were dissolved in water for injection to a concentration of 0.2-0.5 g/100 mL (0.2-0.5%), or mixed with commercially-available clinically-common local anesthetic drugs to prepare a mixed solution with a specific proportion, and the 0.75% levobupivacaine was used as the positive control compound. The experimental method was as follows: male SD rats weighing 180-300 g were shaved off back hair 1 day before the experiment, and a circular skin area with a diameter of 4 cm was exposed. 0.4 mL of the drug solution was subcutaneously injected to the exposed circular center on the back using a 1 mL syringe to form a skin mound. After 1 minute, the first measurement was performed. Each of 8 random parts around the center of the injection site was stimulated once by acupuncture of 15 g force using a 26G needle (the stimulation site was no more than 1 cm away from the injection center). […] If there was no such behavior, it was considered that the local anesthetic effect existed. […] Except for the first measurement, the measurement was performed every 2 hours within 12 hours after the administration, and every 6 hours after 12 hours after the administration. 8 rats were used for each drug for the experiment.

[2] = background, literature; cited from earlier work
[3] = 0.75%, 0.2 mL near left sciatic nerve
[4] = 0.5%, 0.2 mL near left sciatic nerve
[5] = 0.5 + 0.15% tetracaine hydrochloride, 0.2 mL near sciatic nerve
[6] = 1.0%, 0.2 mL near left sciatic nerve
[7] = 2.0%, 0.2 mL near left sciatic nerve
[8] = 0.15 + 0.15% tetracaine hydrochloride
[9] = 0.5 + 0.35% bupivacaine hydrochloride, 0.2 mL near sciatic nerve
[10] = 0.15 + 0.35% bupivacaine hydrochloride
[11] = 0.5 + 0.35% lidocaine hydrochloride, 0.2 mL near sciatic nerve
[12] = 0.15 + 0.35% lidocaine hydrochloride

Compound	Mortality rate % (rats; 0.2% aqueous solution) [%]	Duration of local anesthesia [1, 4] [h]	Duration of local anesthesia [1, 6] [h]	Duration of local anesthesia [1, 7] [h]	Duration of local anesthesia (male SD rats; 0.2%, rat back) [h]	Duration of local anesthesia (male SD rats; 0.5%, rat back) [h]	other results
CCCCN1CCCC[C@H]1C(=O)Nc1c(C)cccc1C [Levobupivacaine hydrochloride, reference compound]							Mortality rate % (rats; 0.75% solution, hydrochloride): 70%; Mortality rate % (rats; 0.75% solution, listed as levobupivaca, hydrochloride): death of most animals; Mortality rate % (rats; 0.75% solution, listed as levobupivacaine, hydrochloride): 70%; Duration of local anesthesia [1, 3]: 2 to 6 h; Duration of motor block ([1]; 0.75%, compared with sensory block): basically the same as that of the sensory block; Block of motor function of the hindlimb ([1]; 0.75%, side injected with the drug): significantly blocked the motor function; Duration of local anesthesia (male SD rats; 0.75%, rat back, hydrochloride): 4 to 6 h; Duration of local anesthesia (male SD rats; 0.75%, rat back, listed as levobupivacaine, hydrochloride): 4 to 6 h
CCN(CCCCCOc1cc(C)c(NC(=O)C[N+](CC)(CC)CC)c(C)c1)CC(=O)Nc1c(C)cccc1C [Compound 45]	0	18 to 24	30 to 42	96 to 120	24 to 36	42 to 60	Duration of local anesthesia [1, 5]: 36 to 42 h; Duration of local anesthesia (male SD rats; [8]): 36 to 48 h
CCN(CC)CC(=O)Nc1c(C)cccc1C [lidocaine]							Duration of local anesthesia [2]: 2 h
CCCCN1CCCCC1C(=O)Nc1c(C)cccc1C (stereo not drawn) [bupivacaine, reference compound]							Duration of local anesthesia [1, 3]: 2 to 6 h; Duration of local anesthesia (male SD rats; 0.75%, rat back): 4 to 6 h
CC[N+](CC)(CC)CC(=O)Nc1c(C)cc(O)cc1C [Compound 1]	0	4 to 10	12 to 18	30 to 48	6 to 8	10 to 12	Duration of local anesthesia [1, 9]: 18 to 30 h; Duration of local anesthesia (male SD rats; [10]): 24 to 30 h
C=CC[N+]1(CC(=O)Nc2c(C)cc(OC(=O)CCC)cc2C)CCCCC1 [Compound 26]	0	24 to 30	48 to 60	96 to 160	24 to 36	54 to 66	Duration of local anesthesia ([1]; 0.5 + 0.35% levobupivacaine hydrochloride, 0.2 mL near sciatic nerve): 36 to 48 h; Duration of local anesthesia (male SD rats; 0.15 + 0.35% levobupivacaine hydrochloride): 42 to 54 h
CC[N+](CC)(CC)CC(=O)Nc1c(C)cc(OC(=O)OCCCN2CCCCC2C(=O)Nc2c(C)cccc2C)cc1C (stereo not drawn) [Compound 48]	0	24 to 36	54 to 72	120 to 160	36 to 54	60 to 78	Duration of local anesthesia [1, 5]: 60 to 72 h; Duration of local anesthesia (male SD rats; [8]): 66 to 72 h
CC[N+](CC)(CC)CC(=O)Nc1c(C)cc(OC(C)=O)cc1C [Compound 3]	0	10 to 12	18 to 30	54 to 96	8 to 14	12 to 18	Duration of local anesthesia [1, 9]: 24 to 36 h; Duration of local anesthesia (male SD rats; [10]): 18 to 24 h
CCCCCOC(=O)Oc1cc(C)c(NC(=O)C[N+](CC)(CC)CC)c(C)c1 [Compound 27]	0	12 to 24	30 to 42	96 to 144	18 to 30	36 to 48	Duration of local anesthesia ([1]; 0.5 + 0.5% lidocaine hydrochloride, 0.2 mL near sciatic nerve): 36 to 66 h; Duration of local anesthesia (male SD rats; 0.15 + 0.5% lidocaine hydrochloride): 36 to 60 h
CC[N+](CC)(CC)CC(=O)Nc1c(C)cc(OC(C)C)cc1C [Compound 15]	0	12 to 18	24 to 36	120 to 144	24 to 30	42 to 54	Duration of local anesthesia [1, 9]: 30 to 42 h; Duration of local anesthesia (male SD rats; [10]): 36 to 42 h
CCCCCCOc1cc(C)c(NC(=O)C[N+](CC)(CC)CC)c(C)c1 [Compound 17]	0	24 to 42	42 to 66	96 to 144	36 to 48	54 to 60	Duration of local anesthesia [1, 9]: 48 to 66 h; Duration of local anesthesia (male SD rats; [10]): 54 to 72 h
CC[N+](CC)(CC)CC(=O)Nc1c(C)cc(OC(=O)CCCCCCCN2CCCCC2C(=O)Nc2c(C)cccc2C)cc1C (stereo not drawn) [Compound 50]	0	24 to 30	36 to 48	96 to 120	18 to 30	24 to 48	Duration of local anesthesia [1, 5]: 36 to 60 h; Duration of local anesthesia (male SD rats; [8]): 42 to 54 h
CC[N+](CC)(CCO)CC(=O)Nc1c(C)cc(OCCCCN2CCCCC2C(=O)Nc2c(C)cccc2C)cc1C (stereo not drawn) [Compound 53]	0	30 to 36	42 to 54	72 to 84	24 to 30	48 to 54	Duration of local anesthesia [1, 5]: 42 to 66 h; Duration of local anesthesia (male SD rats; [8]): 36 to 48 h
CCCCCN(C)CC(=O)Oc1cc(C)c(NC(=O)C[N+](CC)(CC)CC)c(C)c1 [Compound 28]	0	30 to 36	48 to 60	120 to 144	36 to 48	54 to 72	Duration of local anesthesia [1, 11]: 48 to 54 h; Duration of local anesthesia (male SD rats; [12]): 54 to 66 h
CC[N+](CC)(CC)CC(=O)Nc1c(C)cc(N)cc1C [Compound 7]		<2	<2	2 to 4	2 to 4	2 to 4	Duration of local anesthesia [1, 9]: 2 to 4 h; Duration of local anesthesia (male SD rats; [10]): 4 to 6 h; Local anesthetic effect at the first measurement (male SD rats; injections of 0.2% and 0.5%, first measurement 1 minute after subcutaneous injection): not effective
CCCC(=O)Oc1cc(C)c(NC(=O)C2CCCC[N+]2(C)CCC)c(C)c1 (stereo not drawn) [Compound 33]	0	24 to 30	48 to 66	120 to 144	36 to 54	60 to 72	Duration of local anesthesia [1, 5]: 60 to 84 h; Duration of local anesthesia (male SD rats; [8]): 66 to 84 h
CC[N+](CC)(CCO)CC(=O)Nc1c(C)cc(OC(=O)CCCc2ccc(Cl)cc2)cc1C [Compound 31]	0	12 to 18	24 to 30	72 to 120	24 to 30	36 to 54	Duration of local anesthesia [1, 11]: 24 to 42 h; Duration of local anesthesia (male SD rats; [12]): 36 to 42 h

From patent publication US20230183169A1, “AROMATIC COMPOUND, PREPARATION METHOD THEREFOR AND USE THEREOF IN DRUG” (SICHUAN ACADEMY OF MEDICAL SCIENCES - SICHUAN PROVINCIAL …, priority 2020, published 2023)
